Measured values as given in PubChem BioAssay AID330 (DTP/NCI, 2004).
Several values for one entry are separate records, joined by “and”; a condition that tells them apart may be missing. Identical values can stand only once. Toxic doses and inconclusive results are not listed.

Test system: P388 leukemia ip, CD2F1 mice, survival T/C
Assay: NCI In Vivo Anticancer Drug Screen. Data for tumor model P388 Leukemia (intraperitoneal) in CD2F1 (CDF1) mice
Conditions: endpoint: median survival time, higher = longer survival
Method in brief: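 Mice carrying the transplanted tumor received test compound or vehicle. Survival was recorded in each group, and the value is the treated-group measurement divided by that of the vehicle-treated control group.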

[1] = dose: 50.0 mg/kg/injection, schedule: Q01DX009 (ip), vehicle: saline
[2] = dose: 100.0 mg/kg/injection, schedule: Q01DX009 (ip), vehicle: saline
[3] = dose: 60.0 mg/kg/injection, schedule: Q01DX005 (ip), vehicle: saline with Tween-80
[4] = dose: 120.0 mg/kg/injection, schedule: Q01DX005 (ip), vehicle: saline with Tween-80
[5] = dose: 240.0 mg/kg/injection, schedule: Q01DX005 (ip), vehicle: saline with Tween-80
[6] = dose: 50.0 mg/kg/injection, schedule: Q01DX005 (ip), vehicle: Klucel (hydroxypropylcellulose) (HPC)
[7] = dose: 100.0 mg/kg/injection, schedule: Q01DX005 (ip), vehicle: Klucel (hydroxypropylcellulose) (HPC)
[8] = dose: 200.0 mg/kg/injection, schedule: Q01DX005 (ip), vehicle: Klucel (hydroxypropylcellulose) (HPC)
[9] = dose: 50.0 mg/kg/injection, schedule: Q01DX009 (ip), vehicle: saline with Tween-80
[10] = dose: 100.0 mg/kg/injection, schedule: Q01DX009 (ip), vehicle: saline with Tween-80
[11] = dose: 200.0 mg/kg/injection, schedule: Q01DX009 (ip), vehicle: saline
[12] = dose: 50.0 mg/kg/injection, schedule: Q01DX005 (ip), vehicle: saline with Tween-80
[13] = dose: 100.0 mg/kg/injection, schedule: Q01DX005 (ip), vehicle: saline with Tween-80
[14] = dose: 200.0 mg/kg/injection, schedule: Q01DX005 (ip), vehicle: saline with Tween-80

CCCCCCCCCCCCCCCCCC[N+]1([O-])CCOCC1
T/C [1]: 98 % of control | T/C [2]: 96 % of control

COc1ccc(NC(=O)/N=C2\CN(C(=O)c3c(F)cccc3F)C(=O)N2c2ccc(OC)cc2)cc1
T/C [3]: 87 % of control | T/C [4]: 89 % of control | T/C [5]: 103 % of control

COC(=O)CC1C=CCC2C(=O)C=C(OC)C(=O)C12C (configuration not stated)
T/C [6]: 103 % of control | T/C [7]: 100 % of control | T/C [8]: 100 % of control

CCOC(=O)/C=C1\NC(=O)N(CCCCCCN2C(=O)N/C(=C\C(=O)OCC)C2=O)C1=O
T/C [9]: 101 % of control | T/C [10]: 93 % of control | T/C (dose: 200.0 mg/kg/injection, schedule: Q01DX009 (ip), vehicle: saline with Tween-80): 93 % of control

CSCCC(NCc1c(O)ccc2c(C)cc(=O)oc12)C(=O)O (configuration not stated)
T/C (dose: 60.0 mg/kg/injection, schedule: Q01DX005 (ip), vehicle: Klucel (hydroxypropylcellulose) (HPC)): 93 % of control | T/C (dose: 120.0 mg/kg/injection, schedule: Q01DX005 (ip), vehicle: Klucel (hydroxypropylcellulose) (HPC)): 98 % of control | T/C (dose: 240.0 mg/kg/injection, schedule: Q01DX005 (ip), vehicle: Klucel (hydroxypropylcellulose) (HPC)): 99 % of control

Nc1cc([N+](=O)[O-])ccc1O
T/C [2]: 102 % of control and 105 % of control | T/C [11]: 101 % of control | T/C (dose: 600.0 mg/kg/injection, schedule: Q01DX009 (ip), vehicle: saline): 91 % of control

CC(=O)OCC1OC(n2cnc3c(=O)n(S(=O)(=O)c4ccc(C)cc4)cnc32)C(OC(C)=O)C1OC(C)=O (configuration not stated)
T/C [3]: 103 % of control | T/C [4]: 106 % of control | T/C [5]: 100 % of control

CCOC(=O)Nc1cc2c(c(N)n1)N=C(c1ccccc1)CO2
T/C (dose: 25.0 mg/kg/injection, schedule: Q01DX005 (ip), vehicle: saline with Tween-80): 102 % of control and 112 % of control

CC(NC(=O)c1ccc(Cl)cc1Cl)c1ccccc1 (configuration not stated)
T/C (dose: 50.0 mg/kg/injection, schedule: Q01DX001 (ip), vehicle: other): 98 % of control | T/C (dose: 100.0 mg/kg/injection, schedule: Q01DX001 (ip), vehicle: other): 97 % of control | T/C (dose: 200.0 mg/kg/injection, schedule: Q01DX001 (ip), vehicle: other): 96 % of control | T/C (dose: 400.0 mg/kg/injection, schedule: Q01DX001 (ip), vehicle: other): 94 % of control

CC(Cc1ccccc1)N(C)C(=O)c1ccc[n+](C)c1 (configuration not stated)
T/C (dose: 50.0 mg/kg/injection, schedule: Q01DX005 (ip), vehicle: saline): 107 % of control | T/C (dose: 100.0 mg/kg/injection, schedule: Q01DX005 (ip), vehicle: saline): 109 % of control

CC(C)(C)C1CCC(=NSC(c2ccccc2)(c2ccccc2)c2ccccc2)CC1 (configuration not stated)
T/C (dose: 100.0 mg/kg/injection, schedule: Q04DX002 (ip), vehicle: saline with Tween-80): 95 % of control | T/C (dose: 200.0 mg/kg/injection, schedule: Q04DX002 (ip), vehicle: saline with Tween-80): 87 % of control | T/C (dose: 400.0 mg/kg/injection, schedule: Q04DX002 (ip), vehicle: saline with Tween-80): 89 % of control

S=c1[nH][nH]c(=S)s1
T/C (dose: 25.0 mg/kg/injection, schedule: Q01DX009 (ip), vehicle: Klucel (hydroxypropylcellulose) (HPC)): 95 % of control | T/C (dose: 50.0 mg/kg/injection, schedule: Q01DX009 (ip), vehicle: Klucel (hydroxypropylcellulose) (HPC)): 95 % of control

COc1ccc(NC(=O)N2CCOCC2)cc1
T/C [1]: 92 % of control | T/C [2]: 92 % of control | T/C [11]: 88 % of control

C1CCN(CCC[Si]23OCCN(CCO2)CCO3)CC1
T/C [12]: 102 % of control | T/C [13]: 108 % of control | T/C [14]: 106 % of control

NNC(=O)C12CC3CC(CC(C3)C1)C2
T/C (dose: 25.0 mg/kg/injection, schedule: Q01DX005 (ip), vehicle: Klucel (hydroxypropylcellulose) (HPC)): 105 % of control | T/C [6]: 105 % of control | T/C [7]: 102 % of control | T/C [8]: 112 % of control

O=C(N1CCCCC(Cl)(Cl)C1=O)C(Cl)(Cl)Cl
T/C [12]: 106 % of control | T/C [13]: 103 % of control

Cc1cc(NCCCCNCCCNc2cc(C)nc3cc(N)ccc23)c2ccc(N)cc2n1
T/C (dose: 12.5 mg/kg/injection, schedule: Q01DX009 (ip), vehicle: other): 150 % of control | T/C (dose: 25.0 mg/kg/injection, schedule: Q01DX009 (ip), vehicle: other): 175 % of control

O=C(CC(O)(C(F)(F)F)C(F)(F)F)CC(O)(C(F)(F)F)C(F)(F)F
T/C (dose: 0.5 mg/kg/injection, schedule: Q04DX003 (ip), vehicle: saline + alcohol): 95 % of control | T/C (dose: 1.0 mg/kg/injection, schedule: Q04DX003 (ip), vehicle: saline + alcohol): 100 % of control | T/C (dose: 1.25 mg/kg/injection, schedule: Q04DX003 (ip), vehicle: saline with Tween-80): 100 % of control and 95 % of control | T/C (dose: 2.0 mg/kg/injection, schedule: Q04DX003 (ip), vehicle: saline + alcohol): 90 % of control | T/C (dose: 2.5 mg/kg/injection, schedule: Q04DX003 (ip), vehicle: saline with Tween-80): 100 % of control | T/C (dose: 5.0 mg/kg/injection, schedule: Q04DX003 (ip), vehicle: saline with Tween-80): 100 % of control and 91 % of control

Cc1ccc2c(c1)C1(C)OC(C=CC1(C)O)O2 (configuration not stated)
T/C [12]: 101 % of control | T/C [13]: 106 % of control | T/C [14]: 106 % of control

Cc1cccc(NC(=O)c2ccccc2)n1
T/C (dose: 12.5 mg/kg/injection, schedule: Q04DX003 (ip), vehicle: saline): 104 % of control | T/C (dose: 25.0 mg/kg/injection, schedule: Q04DX003 (ip), vehicle: saline): 100 % of control | T/C (dose: 50.0 mg/kg/injection, schedule: Q04DX003 (ip), vehicle: saline): 90 % of control

NCCCNCCCCNC(=O)C(O)NC(=O)CCCCCCN=C(N)N (configuration not stated)
T/C (dose: 4.4 mg/kg/injection, schedule: Q01DX009 (ip), vehicle: other): 193 % of control and 195 % of control and 198 % of control | T/C (dose: 4.4 mg/kg/injection, schedule: Q01DX009 (ip), vehicle: saline): 193 % of control and 194 % of control and 200 % of control | T/C (dose: 4.5 mg/kg/injection, schedule: Q01DX009 (ip), vehicle: other): 193 % of control | T/C (dose: 4.5 mg/kg/injection, schedule: Q01DX009 (ip), vehicle: saline): 188 % of control and 196 % of control | T/C (dose: 6.25 mg/kg/injection, schedule: Q01DX005 (ip), vehicle: saline): 159 % of control | T/C (dose: 12.5 mg/kg/injection, schedule: Q01DX005 (ip), vehicle: saline): 165 % of control and 172 % of control | T/C (dose: 34.0 mg/kg/injection, schedule: Q01DX009 (ip), vehicle: saline): 205 % of control

CC(C(=O)O)N1CN(/N=C/c2ccc(Cl)cc2Cl)C(N)=NC1(O)CCl (configuration not stated)
T/C (dose: 60.0 mg/kg/injection, schedule: Q01DX005 (ip), vehicle: saline): 101 % of control | T/C (dose: 120.0 mg/kg/injection, schedule: Q01DX005 (ip), vehicle: saline): 101 % of control | T/C (dose: 240.0 mg/kg/injection, schedule: Q01DX005 (ip), vehicle: saline): 115 % of control

COc1ccc(N=C(CC(C)C)C2C(=O)c3ccccc3C2=O)cc1
T/C [6]: 100 % of control | T/C [7]: 109 % of control | T/C [8]: 104 % of control

Cc1cc2c(c(C#N)c1C)NC=NC2C (configuration not stated)
T/C [9]: 94 % of control | T/C [10]: 105 % of control

COc1ccc(S(N)(=O)=O)cc1C(=O)NCCN1CCN(c2cccc(C(F)(F)F)c2)CC1
T/C [6]: 99 % of control | T/C [7]: 95 % of control

CCOC(=O)N1C=CC2(C=C1)CCCCCC2
T/C (dose: 37.5 mg/kg/injection, schedule: Q04DX003 (ip), vehicle: Klucel (hydroxypropylcellulose) (HPC)): 101 % of control | T/C (dose: 75.0 mg/kg/injection, schedule: Q04DX003 (ip), vehicle: Klucel (hydroxypropylcellulose) (HPC)): 98 % of control

CN(C)C(=S)SCN1CCCCC1
T/C (dose: 6.25 mg/kg/injection, schedule: Q01DX009 (ip), vehicle: saline with Tween-80): 100 % of control | T/C (dose: 12.5 mg/kg/injection, schedule: Q01DX009 (ip), vehicle: saline with Tween-80): 101 % of control | T/C (dose: 25.0 mg/kg/injection, schedule: Q01DX009 (ip), vehicle: saline with Tween-80): 100 % of control | T/C [9]: 95 % of control

C(=Nc1ccncc1)c1c[nH]c2ccccc12
T/C (dose: 3.12 mg/kg/injection, schedule: Q01DX001 (ip), vehicle: Klucel (hydroxypropylcellulose) (HPC)): 104 % of control | T/C (dose: 6.25 mg/kg/injection, schedule: Q01DX001 (ip), vehicle: Klucel (hydroxypropylcellulose) (HPC)): 98 % of control | T/C (dose: 12.5 mg/kg/injection, schedule: Q01DX001 (ip), vehicle: Klucel (hydroxypropylcellulose) (HPC)): 101 % of control and 104 % of control

O=c1cc[nH]c2ccccc12
T/C [1]: 96 % of control | T/C [2]: 92 % of control | T/C [11]: 97 % of control
